Source: US20250144067A1, “PERSONALIZED STARVATION THERAPY FOR CANCER” (Faeth Therapeutics, Inc., priority 2021, published 2025)
Where a name gives a salt, the structure may show the parent alone.

System: NCI-H292 lung cancer cells
Experiment: FDA drug screening, complete media vs cholesterol-free media with simvastatin (TABLE 2)
Assay type: cell-based, human
Details: NCI-H292 cells, FDA library drug in cholesterol-free media with simvastatin 0.04 μM

SMILES | Cholesterol-free media + simvastatin (0.04 μM)
O=C(O)Cc1ccccc1Nc1c(Cl)cccc1Cl [Diclofenac] | 1.089

Same assay, conditions: NCI-H292 cells, FDA library drug in complete media

SMILES | Complete Media
C#C[C@]1(O)CC[C@H]2[C@@H]3CCC4=CCCC[C@@H]4[C@H]3C(=C)C[C@@]21CC [Desogestrel] | 1.022
O=C(O)Cc1ccccc1Nc1c(Cl)cccc1Cl [Diclofenac] | 0.821

Same assay, conditions: NCI-H292 cells, cholesterol-free media with simvastatin 0.04 μM; FDA drug library screen (TABLE 2)

SMILES | Cholesterol-free media + simvastatin (0.04 μM)
C[C@@H]1C[C@H]2[C@@H]3CCC4=CC(=O)C=C[C@]4(C)[C@@]3(F)[C@@H](O)C[C@]2(C)[C@H]1C(=O)CO [Desoximetasone] | 0.8194
Cc1cccc([C@H](C)c2cnc[nH]2)c1C [Dexmedetomidine (hydrochloride)] | 1.227
CCCN[C@@H]1CCc2nc(N)sc2C1 [Dexpramipexole (dihydrochloride)] | 1.099
CC(=O)OCC(=O)[C@@]1(O)CC[C@H]2[C@@H]3CCC4=CC(=O)C=C[C@]4(C)[C@@]3(Cl)[C@@H](Cl)C[C@@]21C [Dichlorisone acetate] | 0.7442
NS(=O)(=O)c1cc(Cl)c(Cl)c(S(N)(=O)=O)c1 [Dichlorphenamide] | 1.117
O=C(O)Cc1ccccc1Nc1c(Cl)cccc1Cl [Diclofenac (diethylamine)] | 0.9893
O=C(O)Cc1ccccc1Nc1c(Cl)cccc1Cl [Diclofenac (potassium)] | 1.093

Same assay, conditions: NCI-H292 cells, cholesterol-free media with simvastatin 0.04 μM; cell growth value in FDA drug screen

SMILES | Cholesterol-free media + simvastatin (0.04 μM)
CC1(C)O[C@@H]2C[C@H]3[C@@H]4CCC5=CC(=O)C=C[C@]5(C)[C@H]4[C@@H](O)C[C@]3(C)[C@]2(C(=O)CO)O1 [Desonide] | 0.6303
CN(C)CC(c1ccc(O)cc1)C1(O)CCCCC1 (stereo not shown) [Desvenlafaxine] | 1.047
CC1=NS(=O)(=O)c2cc(Cl)ccc2N1 [Diazoxide] | 0.9722
CCCCOc1cc(C(=O)NCCN(CC)CC)c2ccccc2n1 [Dibucaine] | 0.8438

Same assay, conditions: NCI-H292 cells, complete media; FDA drug library screen (TABLE 2)

SMILES | Complete Media
C[C@@H]1C[C@H]2[C@@H]3CCC4=CC(=O)C=C[C@]4(C)[C@@]3(F)[C@@H](O)C[C@]2(C)[C@H]1C(=O)CO [Desoximetasone] | 0.8184
Cc1cccc([C@H](C)c2cnc[nH]2)c1C [Dexmedetomidine (hydrochloride)] | 1.157
CCCN[C@@H]1CCc2nc(N)sc2C1 [Dexpramipexole (dihydrochloride)] | 1.11
CC(=O)OCC(=O)[C@@]1(O)CC[C@H]2[C@@H]3CCC4=CC(=O)C=C[C@]4(C)[C@@]3(Cl)[C@@H](Cl)C[C@@]21C [Dichlorisone acetate] | 0.6906
NS(=O)(=O)c1cc(Cl)c(Cl)c(S(N)(=O)=O)c1 [Dichlorphenamide] | 1.073
O=C(O)Cc1ccccc1Nc1c(Cl)cccc1Cl [Diclofenac (diethylamine)] | 0.9206
O=C(O)Cc1ccccc1Nc1c(Cl)cccc1Cl [Diclofenac (potassium)] | 1.041

Same assay, conditions: NCI-H292 cells, complete media; cell growth value in FDA drug screen

SMILES | Complete Media
CC1(C)O[C@@H]2C[C@H]3[C@@H]4CCC5=CC(=O)C=C[C@]5(C)[C@H]4[C@@H](O)C[C@]3(C)[C@]2(C(=O)CO)O1 [Desonide] | 0.7658
CN(C)CC(c1ccc(O)cc1)C1(O)CCCCC1 (stereo not shown) [Desvenlafaxine] | 1.102
CC1=NS(=O)(=O)c2cc(Cl)ccc2N1 [Diazoxide] | 1.066
CCCCOc1cc(C(=O)NCCN(CC)CC)c2ccccc2n1 [Dibucaine] | 0.9323

Same assay, conditions: NCI-H292 cells, drug in cholesterol-free media with simvastatin 0.04 μM

SMILES | Cholesterol-free media + simvastatin (0.04 μM)
CC(=O)Oc1cccc2c1C(=O)c1c(OC(C)=O)cc(C(=O)O)cc1C2=O [Diacerein] | 1.08

Same assay, conditions: NCI-H292 cells, drug in complete media

SMILES | Complete Media
CC(=O)Oc1cccc2c1C(=O)c1c(OC(C)=O)cc(C(=O)O)cc1C2=O [Diacerein] | 0.9105

Same assay, conditions: complete media minus cholesterol-free media + simvastatin (0.04 μM); >0 enhanced anti-cancer activity, about 0 neutral, <0 antagonist

SMILES | Difference
C[C@@H]1C[C@H]2[C@@H]3CCC4=CC(=O)C=C[C@]4(C)[C@@]3(F)[C@@H](O)C[C@]2(C)[C@H]1C(=O)CO [Desoximetasone] | 0.00
Cc1cccc([C@H](C)c2cnc[nH]2)c1C [Dexmedetomidine (hydrochloride)] | −0.07
CCCN[C@@H]1CCc2nc(N)sc2C1 [Dexpramipexole (dihydrochloride)] | 0.01
CC(=O)OCC(=O)[C@@]1(O)CC[C@H]2[C@@H]3CCC4=CC(=O)C=C[C@]4(C)[C@@]3(Cl)[C@@H](Cl)C[C@@]21C [Dichlorisone acetate] | −0.05
NS(=O)(=O)c1cc(Cl)c(Cl)c(S(N)(=O)=O)c1 [Dichlorphenamide] | −0.04
O=C(O)Cc1ccccc1Nc1c(Cl)cccc1Cl [Diclofenac (diethylamine)] | −0.07
O=C(O)Cc1ccccc1Nc1c(Cl)cccc1Cl [Diclofenac (potassium)] | −0.05

Same assay, conditions: complete media minus cholesterol-free media + simvastatin; >0 enhanced anti-cancer activity, about 0 neutral, <0 antagonist

SMILES | Difference
CC1(C)O[C@@H]2C[C@H]3[C@@H]4CCC5=CC(=O)C=C[C@]5(C)[C@H]4[C@@H](O)C[C@]3(C)[C@]2(C(=O)CO)O1 [Desonide] | 0.14
CN(C)CC(c1ccc(O)cc1)C1(O)CCCCC1 (stereo not shown) [Desvenlafaxine] | 0.05
CC1=NS(=O)(=O)c2cc(Cl)ccc2N1 [Diazoxide] | 0.09
CCCCOc1cc(C(=O)NCCN(CC)CC)c2ccccc2n1 [Dibucaine] | 0.09

Same assay, conditions: complete media vs cholesterol-free media + simvastatin (0.04 μM); >0 enhanced anti-cancer activity, about 0 neutral, <0 antagonist

SMILES | Difference
C#C[C@]1(O)CC[C@H]2[C@@H]3CCC4=CCCC[C@@H]4[C@H]3C(=C)C[C@@]21CC [Desogestrel] | −0.60
CC(=O)Oc1cccc2c1C(=O)c1c(OC(C)=O)cc(C(=O)O)cc1C2=O [Diacerein] | −0.17
O=C(O)Cc1ccccc1Nc1c(Cl)cccc1Cl [Diclofenac] | −0.27

System: NCI-H292 lung cancer cells
Experiment: FDA drug screening, complete media vs cholesterol-free media without statin (TABLE 1)
Assay type: cell-based, human
Details: Complete minus Cholesterol-free; >0 enhanced anti-cancer activity, about 0 neutral, <0 antagonist

SMILES | Difference
C#C[C@]1(O)CC[C@H]2[C@@H]3CCC4=CCCC[C@@H]4[C@H]3C(=C)C[C@@]21CC [Desogestrel] | 0.06
CC1(C)O[C@@H]2C[C@H]3[C@@H]4CCC5=CC(=O)C=C[C@]5(C)[C@H]4[C@@H](O)C[C@]3(C)[C@]2(C(=O)CO)O1 [Desonide] | −0.07
C[C@@H]1C[C@H]2[C@@H]3CCC4=CC(=O)C=C[C@]4(C)[C@@]3(F)[C@@H](O)C[C@]2(C)[C@H]1C(=O)CO [Desoximetasone] | −0.06
Cc1cccc([C@H](C)c2cnc[nH]2)c1C [Dexmedetomidine (hydrochloride)] | −0.05
O=C(O)Cc1ccccc1Nc1c(Cl)cccc1Cl [Diclofenac (potassium)] | −0.03
O=C(O)Cc1ccccc1Nc1c(Cl)cccc1Cl [Diclofenac] | −0.25

Same assay, conditions: Complete minus Cholesterol-free; greater than 0 enhanced anti-cancer activity, about 0 neutral, below 0 antagonist

SMILES | Difference
CC(=O)Oc1cccc2c1C(=O)c1c(OC(C)=O)cc(C(=O)O)cc1C2=O [Diacerein] | −0.13
NS(=O)(=O)c1cc(Cl)c(Cl)c(S(N)(=O)=O)c1 [Dichlorphenamide] | −0.08

Same assay, conditions: Complete minus Cholesterol-free; greater than 0 enhanced anti-cancer activity, about 0 neutral, below 0 antagonists

SMILES | Difference
CCCCOc1cc(C(=O)NCCN(CC)CC)c2ccccc2n1 [Dibucaine] | −0.63

Same assay, conditions: NCI-H292 cells in cholesterol-free media without statin

SMILES | Cholesterol-free
CCCCOc1cc(C(=O)NCCN(CC)CC)c2ccccc2n1 [Dibucaine] | 1.382

Same assay, conditions: NCI-H292 cells in complete media

SMILES | Complete
CCCCOc1cc(C(=O)NCCN(CC)CC)c2ccccc2n1 [Dibucaine] | 0.749

Same assay, conditions: NCI-H292 cells, FDA drug library screen, cholesterol-free media without statin

SMILES | Cholesterol-free
CC(=O)Oc1cccc2c1C(=O)c1c(OC(C)=O)cc(C(=O)O)cc1C2=O [Diacerein] | 1.078
NS(=O)(=O)c1cc(Cl)c(Cl)c(S(N)(=O)=O)c1 [Dichlorphenamide] | 1.046

Same assay, conditions: NCI-H292 cells, FDA drug library screen, complete media

SMILES | Complete
CC(=O)Oc1cccc2c1C(=O)c1c(OC(C)=O)cc(C(=O)O)cc1C2=O [Diacerein] | 0.9444
NS(=O)(=O)c1cc(Cl)c(Cl)c(S(N)(=O)=O)c1 [Dichlorphenamide] | 0.9714

Same assay, conditions: NCI-H292 cells, cholesterol-free media without statin

SMILES | Cholesterol-free
CN(C)CC(c1ccc(O)cc1)C1(O)CCCCC1 (stereo not shown) [Desvenlafaxine] | 1.158
CCCN[C@@H]1CCc2nc(N)sc2C1 [Dexpramipexole (dihydrochloride)] | 0.9915
CC1=NS(=O)(=O)c2cc(Cl)ccc2N1 [Diazoxide] | 1.261
O=C(O)Cc1ccccc1Nc1c(Cl)cccc1Cl [Diclofenac] | 1.167

Same assay, conditions: NCI-H292 cells, cholesterol-free media without statin, FDA drug library screen

SMILES | Cholesterol-free
C#C[C@]1(O)CC[C@H]2[C@@H]3CCC4=CCCC[C@@H]4[C@H]3C(=C)C[C@@]21CC [Desogestrel] | 0.9017
CC1(C)O[C@@H]2C[C@H]3[C@@H]4CCC5=CC(=O)C=C[C@]5(C)[C@H]4[C@@H](O)C[C@]3(C)[C@]2(C(=O)CO)O1 [Desonide] | 0.6524
C[C@@H]1C[C@H]2[C@@H]3CCC4=CC(=O)C=C[C@]4(C)[C@@]3(F)[C@@H](O)C[C@]2(C)[C@H]1C(=O)CO [Desoximetasone] | 0.8359
Cc1cccc([C@H](C)c2cnc[nH]2)c1C [Dexmedetomidine (hydrochloride)] | 0.9551
CC(=O)OCC(=O)[C@@]1(O)CC[C@H]2[C@@H]3CCC4=CC(=O)C=C[C@]4(C)[C@@]3(Cl)[C@@H](Cl)C[C@@]21C [Dichlorisone acetate] | 0.8532
O=C(O)Cc1ccccc1Nc1c(Cl)cccc1Cl [Diclofenac (diethylamine)] | 0.7838
O=C(O)Cc1ccccc1Nc1c(Cl)cccc1Cl [Diclofenac (potassium)] | 1.133

Same assay, conditions: NCI-H292 cells, complete media

SMILES | Complete
CN(C)CC(c1ccc(O)cc1)C1(O)CCCCC1 (stereo not shown) [Desvenlafaxine] | 0.8309
CCCN[C@@H]1CCc2nc(N)sc2C1 [Dexpramipexole (dihydrochloride)] | 0.5799
CC1=NS(=O)(=O)c2cc(Cl)ccc2N1 [Diazoxide] | 0.9038
O=C(O)Cc1ccccc1Nc1c(Cl)cccc1Cl [Diclofenac] | 0.917

Same assay, conditions: NCI-H292 cells, complete media, FDA drug library screen

SMILES | Complete
C#C[C@]1(O)CC[C@H]2[C@@H]3CCC4=CCCC[C@@H]4[C@H]3C(=C)C[C@@]21CC [Desogestrel] | 0.9645
CC1(C)O[C@@H]2C[C@H]3[C@@H]4CCC5=CC(=O)C=C[C@]5(C)[C@H]4[C@@H](O)C[C@]3(C)[C@]2(C(=O)CO)O1 [Desonide] | 0.5811
C[C@@H]1C[C@H]2[C@@H]3CCC4=CC(=O)C=C[C@]4(C)[C@@]3(F)[C@@H](O)C[C@]2(C)[C@H]1C(=O)CO [Desoximetasone] | 0.7716
Cc1cccc([C@H](C)c2cnc[nH]2)c1C [Dexmedetomidine (hydrochloride)] | 0.9084
CC(=O)OCC(=O)[C@@]1(O)CC[C@H]2[C@@H]3CCC4=CC(=O)C=C[C@]4(C)[C@@]3(Cl)[C@@H](Cl)C[C@@]21C [Dichlorisone acetate] | 1.096
O=C(O)Cc1ccccc1Nc1c(Cl)cccc1Cl [Diclofenac (potassium)] | 1.107

Same assay, conditions: complete vs cholesterol-free media; >0 enhanced anti-cancer activity, about 0 neutral, <0 antagonist

SMILES | Difference
CC(=O)OCC(=O)[C@@]1(O)CC[C@H]2[C@@H]3CCC4=CC(=O)C=C[C@]4(C)[C@@]3(Cl)[C@@H](Cl)C[C@@]21C [Dichlorisone acetate] | 0.24
O=C(O)Cc1ccccc1Nc1c(Cl)cccc1Cl [Diclofenac (diethylamine)] | 0.36

Same assay, conditions: complete vs cholesterol-free media; greater than 0 enhanced anti-cancer activity, about 0 neutral, below 0 antagonists

SMILES | Difference
CN(C)CC(c1ccc(O)cc1)C1(O)CCCCC1 (stereo not shown) [Desvenlafaxine] | −0.33
CCCN[C@@H]1CCc2nc(N)sc2C1 [Dexpramipexole (dihydrochloride)] | −0.41
CC1=NS(=O)(=O)c2cc(Cl)ccc2N1 [Diazoxide] | −0.36
